Source: patent US20120034613A1, “Apparatus and Method for Testing Relationships Between Gene Expression and Physical Appearance of Skin” (NSE Products, Inc., priority 2010, published 2012)

Test system: EpidermFT™ Skin Model (EFT-400) full thickness skin cultures
Test: Affymetrix GeneChip HG U133 Plus 2.0 microarray global gene expression, agent-exposed vs untreated skin cultures
Type: cell-based, human
Details: 24 hr; for Direction / Fold change: Salicin 0.5%
[1] = 210424_s_at GOLGA8A /// GOLGA8B

In the case of `OCc1ccccc1O[C@@H]1O[C@H](CO)[C@@H](O)[C@H](O)[C@H]1O` [Salicin, 2-(Hydroxymethyl)phenyl β-D-glucospyranoside], the “Fold change SPTLC2 (203128_at)” value (0.5% vs untreated, down) is reported as 3.78, the “Fold change SPTLC2 (225095_at)” value (0.5% vs untreated, down) is reported as 3.474 and the “Fold change ST14 (216905_s_at)” value (0.5% vs untreated, down) is reported as 3.604. For the same compound, the “Fold change STARD5 (213820_s_at)” value (0.5% vs untreated, down) was 3.436, the “Fold change STON2 (227461_at)” value (0.5% vs untreated, down) was 3.288 and the “Fold change STOX2 (231969_at)” value (0.5% vs untreated, down) was 3.5. For the same compound, the “Fold change STYK1 (220030_at)” value (0.5% vs untreated, down) was 3.584, the “Fold change SYK (207540_s_at)” value (0.5% vs untreated, down) was 3.163 and the “Fold change SYNE2 (202761_s_at)” value (0.5% vs untreated, down) was 3.62. The “Fold change SYTL1 (227134_at)” value (0.5% vs untreated, down) was 3.294, the “Fold change TACC2 (211382_s_at)” value (0.5% vs untreated, down) was 3.335 and the “Fold change TGFA (205015_s_at)” value (0.5% vs untreated, down) was 3.134. For the same compound, the “Fold change TGM3 (206004_at)” value (0.5% vs untreated, down) was 3.783, the “Fold change THBD (203887_s_at)” value (0.5% vs untreated, down) was 3.137 and the “Fold change TIAM1 (206409_at)” value (0.5% vs untreated, down) was 3.792. For the same compound, the “Fold change TM7SF3 (217974_at)” value (0.5% vs untreated, down) was 3.241, the “Fold change TMEM54 (225536_at)” value (0.5% vs untreated, down) was 3.354 and the “Fold change TMEM184A (1558281_a_at)” value (0.5% vs untreated, down) was 3.052. The “Fold change TPD52L1 (203786_s_at)” value (0.5% vs untreated, down) was 3.196, the “Fold change TRIM7 (223694_at)” value (0.5% vs untreated, down) was 3.302 and the “Fold change TRIM7 (239694_at)” value (0.5% vs untreated, down) was 3.174. For the same compound, the “Fold change TRIM14 (203147_s_at)” value (0.5% vs untreated, down) was 3.14, the “Fold change TRIM14 (203148_s_at)” value (0.5% vs untreated, down) was 3.658 and the “Fold change TRIM25 (224806_at)” value (0.5% vs untreated, down) was 3.869. The “Fold change TST (209605_at)” value (0.5% vs untreated, down) was 3.038, the “Fold change UBL3 (201534_s_at)” value (0.5% vs untreated, down) was 3.354 and the “Fold change UGT1A1 /// UGT1A10 /// UGT1A4 /// UGT1A6 /// UGT1A8 /// UGT1A9 (207126_x_at)” value (0.5% vs untreated, down) was 3.18. For the same compound, the “Fold change UPK1B (210065_s_at)” value (0.5% vs untreated, down) was 3.412, the “Fold change USP2 (229337_at)” value (0.5% vs untreated, down) was 3.391 and the “Fold change USP6NL (238164_at)” value (0.5% vs untreated, down) was 3.19. For the same compound, the “Fold change VAMP8 (202546_at)” value (0.5% vs untreated, down) was 3.922, the “Fold change VWA5A (210102_at)” value (0.5% vs untreated, down) was 3.897 and the “Fold change WNT3 (229103_at)” value (0.5% vs untreated, down) was 3.218. For the same compound, the “Fold change XG (1554062_at)” value (0.5% vs untreated, down) was 3.378, the “Fold change ZBTB7C (227782_at)” value (0.5% vs untreated, down) was 3.288 and the “Fold change ZNF91 (206059_at)” value (0.5% vs untreated, down) was 3.205. The Direction (63825_at ABHD2) was “up”, the Fold change (63825_at ABHD2) was 2.157 and the Direction (201467_s_at NQO1) was “up”. The Fold change (201467_s_at NQO1) was 2.122, the Direction (201468_s_at NQO1) was “up” and the Fold change (201468_s_at NQO1) was 2.093. The Direction (202724_s_at FOXO1) was “up”, the Fold change (202724_s_at FOXO1) was 2.098 and the Direction (202952_s_at ADAM12) was “up”. The Fold change (202952_s_at ADAM12) was 2.155, the Direction (203066_at GALNAC4S-6ST) was “up” and the Fold change (203066_at GALNAC4S-6ST) was 2.113. The Direction (203426_s_at IGFBP5) was “up”, the Fold change (203426_s_at IGFBP5) was 2.075 and the Direction (203518_at LYST) was “up”. For the same compound, the Fold change (203518_at LYST) was 2.15, the Direction (203740_at MPHOSPH6) was “up” and the Fold change (203740_at MPHOSPH6) was 2.138. The Direction (203853_s_at GAB2) was “up”, the Fold change (203853_s_at GAB2) was 2.114 and the Direction (204115_at GNG11) was “up”. For the same compound, the Fold change (204115_at GNG11) was 2.108, the Direction (204396_s_at GRK5) was “up” and the Fold change (204396_s_at GRK5) was 2.087. The Direction (204420_at FOSL1) was “up”, the Fold change (204420_at FOSL1) was 2.141 and the Direction (204456_s_at GAS1) was “up”. The Fold change (204456_s_at GAS1) was 2.089, the Direction (204742_s_at PDS5B) was “up” and the Fold change (204742_s_at PDS5B) was 2.139. The Direction (204790_at SMAD7) was “up”, the Fold change (204790_at SMAD7) was 2.151 and the Direction (205110_s_at FGF13) was “up”. The Fold change (205110_s_at FGF13) was 2.158, the Direction (208415_x_at ING1) was “up” and the Fold change (208415_x_at ING1) was 2.15. For the same compound, the Direction (209436_at SPON1) was “up”, the Fold change (209436_at SPON1) was 2.145 and the Direction (210145_at PLA2G4A) was “up”. For the same compound, the Fold change (210145_at PLA2G4A) was 2.072, the Direction (210355_at PTHLH) was “up” and the Fold change (210355_at PTHLH) was 2.144. For the same compound, the Direction [1] was “up”, the Fold change [1] was 2.127 and the Direction (210519_s_at NQO1) was “up”. For the same compound, the Fold change (210519_s_at NQO1) was 2.116, the Direction (210665_at TFPI) was “up” and the Fold change (210665_at TFPI) was 2.091. For the same compound, the Direction (210841_s_at NRP2) was “up”, the Fold change (210841_s_at NRP2) was 2.133 and the Direction (211725_s_at BID) was “up”. The Fold change (211725_s_at BID) was 2.092, the Direction (211981_at COL4A1) was “up” and the Fold change (211981_at COL4A1) was 2.121. For the same compound, the Direction (212298_at NRP1) was “up”, the Fold change (212298_at NRP1) was 2.073 and the Direction (212554_at CAP2) was “up”. The Fold change (212554_at CAP2) was 2.082, the Direction (213032_at NFIB) was “up” and the Fold change (213032_at NFIB) was 2.146. For the same compound, the Direction (213033_s_at NFIB) was “up”, the Fold change (213033_s_at NFIB) was 2.125 and the Direction (213093_at PRKCA) was “up”. The Fold change (213093_at PRKCA) was 2.125, the Direction (213790_at ADAM12) was “up” and the Fold change (213790_at ADAM12) was 2.085. The Direction (213994_s_at SPON1) was “up”, the Fold change (213994_s_at SPON1) was 2.086 and the Direction (214014_at CDC42EP2) was “up”. The Fold change (214014_at CDC42EP2) was 2.119, the Direction (214211_at FTH1) was “up” and the Fold change (214211_at FTH1) was 2.154. For the same compound, the Direction (214913_at ADAMTS3) was “up”, the Fold change (214913_at ADAMTS3) was 2.145 and the Direction (215012_at ZNF451) was “up”. For the same compound, the Fold change (215012_at ZNF451) was 2.114, the Direction (215785_s_at CYFIP2) was “up” and the Fold change (215785_s_at CYFIP2) was 2.107.
